{
  "source": "patent US6015560A",
  "about": "“Antibody recognizing endothelial cell ligand for leukocyte CR3” (priority 1995, dated 2000)",
  "key": {"[1]": {"details": "TLC plates containing ciliary extracts; cited from earlier work"}, "neutrophils [2]": {"test_system": "neutrophils", "assay": "Inhibition of 125I-Factor X binding to neutrophils", "set-up": "species or system human", "procedure": "Human Factor X (Sigma or Hematologic Technologies Inc.) was labeled with ^125 I using Iodogen (Pierce Chemical Co.) Human neutrophils were isolated from heparinized blood according to the manufacturer's specification using Neutrophil Isolation Medium (Cardinal Associates, Santa Fe, N.Mex.) and washed three times with 5 mM EDTA-phosphate-bufferedsaline (PBS), pH 7.2, at 4° C. To eliminate platelet contamination,neutrophils were incubated with autologous serum containing 5 mM EDTA for 30 mins. at 37° C., washed three times with ice-cold PBS, pH 7.2, and resuspended in RPMI 1640 tissue culture medium (Whittaker M. A. Bioproducts, Walkersville, Md.) at 4° C. Binding of ^125 I-Factor X to neutrophils was measured based on a method described by Altieri et al. (1991) Science 254: 1200-1202. Briefly, 200 μl of neutrophils (1.5×10^7 /ml) were supplemented with 17.5 μl of 50 mM CaCl2, stimulated with 3.5 μl of 100 μM NH2 -formyl-Met-Leu-Phe (Sigma), and mixed with 30 μl of 10.3 μg/ml ^125 I-Factor X and 100 μl of 1.75 mM of peptide. […] Aliquots of the supernatant (cell free ^125 I-Factor X) and the cell pellet (cell bound ^125 I-Factor X) were counted in a gamma-counter. Nonspecific binding (~50,000 cpm) was determined by adding a 100 fold excess of unlabeled Factor X, and subtracted from total radioactivity (~500,000 cpm for controls)."}, "leukocytes in CSF": {"test_system": "leukocytes in CSF", "assay": "Leukocyte and protein influx into CSF of rabbits challenged with pneumococci", "format": "in vivo, rabbit", "details": "intravenous, meningitis model", "description": "This inhibitory activity implies that antibodies to FHA which bind to any of the three Factor X regions would disturb leukocyte recruitment. This is to be distinguished from anti-FHA antibodies that bind to endothelia by recognizing an integrin receptor which is an endothelial cell component (see below). […] This is shown in FIG. 6 where various doses of antibody were given to rabbits and the number of leukocytes recruited into the cerebrospinal fluid in response to pneumonoccal meningitis was determined.\nRabbits were inoculated intracisternally with 10^8 pneumococci and the generation of an inflammatory response in cerebrospinal fluid (CSF) was followed over time by measuring the appearance of leukocytes and protein in CSF. Animals were treated with the antibodies intravenously (2 mg/kg of culture supernatant fluid) at the same time as the intracisternal challenge was given."}, "neutrophils [3]": {"test_system": "neutrophils", "assay": "Transendothelial migration of neutrophils", "format": "cell-based, human", "details": "native FHA 1 μM", "procedure": "Transendothelial migration of neutrophils was studied based on a method described by Muller et al. (1992), J. Exp. Med. 176: 819-828. Briefly, human neutrophils suspended in ice-cold Hanks balanced salt solution (HBSS) containing Ca^++ and Mg^++ (Sigma) were fluoresceinated by adding 3.3 μl/ml 5-(and 6-)carboxyfluorescein diacetate, succinimidyl ester (CFSE, Molecular Probes Inc., Oreg.). After incubation for 30 mins. on ice, neutrophils were washed twice in cold HBSS with Ca^++ and Mg^++ and resuspended in cold Medium 199 (M199, Sigma) to a final concentration of 10^6 /ml. Human umbilical vein endothelial cells were subcultured at confluence into 96-well tissue culture plates (Becton Dickinson Labware, Lincoln Park, N.J.) that were coated with hydrated collagen gel (Vitrogen; Collagen Corporation, Palo Alto, Calif.) and fibronectin. Endothelial cells were stimulated with 10 ng/ml TNF-alpha for 4 hours and washed three times with warm M199. Neutrophils (10^6 /ml) were preincubated with 0.01 mM of peptides or with 1 μM of native FHA in M199 for 5 mins. on ice before they were added in 100 μl aliquots to the endothelial cells. For positive control, neutrophils were pre-incubated with 25 μg/ml anti-CD18 mAb IB4. For negative control, neutrophils were treated with 25 μg/ml mAb W6/32 against HLA class I antigen (Dako, Carpinteria, Calif.). The cells were incubated for 1 hour at 37° C., 5% CO2. To terminate transmigration, the supernatant fluid was aspirated and the wells were filled with warm 1 mM EGTA (Sigma) in HBSS without Ca and Mg. The plates were covered with plate sealers (Dynatech, Alexandria, Va.) and centrifuged in an inverted position at 250 g for 3 mins. at room temperature. To remove residual non-transmigrated neutrophils from the endothelial cells, monolayers were washed twice with 200 μl of warm Hanks solution without Ca and Mg. Fluorescence was quantitated using a fluorescence counter (Millipore Cytofluor™ 2300). The percentage of transmigrated neutrophils was determined by comparing the amount of fluorescence of test wells with that measured in collagen- and fibronectin-coated wells without endothelial cells. […] Percent inhibition of transendothelial migration of neutrophils was calculated by comparing the number of transmigrated cells in wells containing neutrophils treated with peptide to neutrophils treated with M199 alone and arbitrarily set at 100% transendothelial migration (TEM).\nThe procedures for determining the neutrophil adherence to cultured endothelial cells and the transendothelial migration of neutrophils were identical with those of Example 9. Control values were the same as those shown in Example 9."}},
  "data": [
    {"substance": "filamentous hemagglutinin [native FHA]", "values": [
      {"measurement": "binding to lactosylceramide", "setting": "[1]", "result": "binds to lactosylceramide"},
      {"measurement": "IC50", "setting": "neutrophils [2]", "result": 100, "unit": "nM"},
      {"measurement": "inhibition of 125I-Factor X binding to neutrophils", "setting": "neutrophils [2]; native FHA 0.3 μM", "result": "70±4", "unit": "%"},
      {"measurement": "leukocyte influx into / inflammation of CSF (in words)", "setting": "leukocytes in CSF", "result": "decreases inflammation"},
      {"measurement": "% Inhibition of TEM", "setting": "neutrophils [3]", "result": "82±1", "unit": "%"},
      {"measurement": "% Inhibition of TEM", "setting": "neutrophils [3]; listed as FHA", "result": "82 ± 1", "unit": "%"},
      {"measurement": "% Inhibition of TEM", "setting": "neutrophils [3]; listed as Intact FHA", "result": "82±1", "unit": "%"}
    ]}
  ]
}
